Source: patent publication US8791132B2, “Compounds and methods for treatment of hypertension” (Medivation Technologies, Inc., priority 2011, dated 2014)
Where “and” joins values, the source holds several entries; their conditions need not be identical. Equal entries are not always repeated. Where two headings read alike, the source gives them in different places. Each block holds one compound with its values, some of them ahead of it.

Legend:
[1] = target: T1, human recombinant adrenergic α2B receptor (Homo sapiens, UniProt P18089); assay: Radioligand binding, adrenergic α2B ([3H]Rauwolscine); settings: for Percentage inhibition of ligand binding, Adrenergic α2B / Percentage inhibition of ligand binding, Adrenergic α2B (0.03 μM): 0.03 µM
T1 construct: expressed in transfected cells; host or cells: CHO-K1
T1 sequence (P18089 1-450): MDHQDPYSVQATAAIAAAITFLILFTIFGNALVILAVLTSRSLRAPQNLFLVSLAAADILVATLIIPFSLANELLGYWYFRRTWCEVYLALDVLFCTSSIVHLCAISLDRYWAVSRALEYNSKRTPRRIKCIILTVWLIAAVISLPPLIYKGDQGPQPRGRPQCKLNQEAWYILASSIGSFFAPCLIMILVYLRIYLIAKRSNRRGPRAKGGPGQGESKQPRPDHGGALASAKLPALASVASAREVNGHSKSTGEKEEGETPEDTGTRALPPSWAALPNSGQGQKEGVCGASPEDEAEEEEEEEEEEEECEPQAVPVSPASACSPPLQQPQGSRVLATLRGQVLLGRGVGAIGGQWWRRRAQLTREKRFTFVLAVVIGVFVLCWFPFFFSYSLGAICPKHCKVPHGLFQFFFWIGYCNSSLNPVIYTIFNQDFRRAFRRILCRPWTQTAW
In short: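 Assay used CHO-K1-expressed human α2B receptor in Tris-HCl pH 7.4 buffer with MgCl2, EDTA and BSA; 60 min incubation at 25 °C.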

[2] = target: T2, rat adrenergic α1B receptor (Rattus norvegicus, UniProt P15823); assay: Radioligand binding, adrenergic α1B ([3H]Prazosin); settings: for Percentage inhibition of ligand binding, Adrenergic α1B / Percentage inhibition of ligand binding, Adrenergic α1B (0.1 μM): 0.1 µM
T2 construct: rat adrenergic α1B receptor obtained from Wistar Rat liver; from tissue; host or cells: Wistar rat liver
T2 sequence (P15823 1-515): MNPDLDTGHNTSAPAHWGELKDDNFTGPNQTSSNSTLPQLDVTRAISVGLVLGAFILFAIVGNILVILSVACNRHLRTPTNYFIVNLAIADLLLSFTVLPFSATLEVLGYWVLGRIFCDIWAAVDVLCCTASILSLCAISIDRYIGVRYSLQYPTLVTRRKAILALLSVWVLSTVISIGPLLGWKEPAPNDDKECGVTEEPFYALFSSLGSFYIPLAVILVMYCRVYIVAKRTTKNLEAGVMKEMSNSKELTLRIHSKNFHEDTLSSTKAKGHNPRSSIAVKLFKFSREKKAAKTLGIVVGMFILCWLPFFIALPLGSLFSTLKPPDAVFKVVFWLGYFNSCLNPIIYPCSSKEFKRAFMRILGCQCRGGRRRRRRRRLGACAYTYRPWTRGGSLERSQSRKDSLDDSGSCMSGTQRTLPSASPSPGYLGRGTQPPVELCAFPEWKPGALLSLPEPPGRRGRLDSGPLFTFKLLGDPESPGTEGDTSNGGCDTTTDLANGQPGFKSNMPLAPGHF
In short: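 Rat α1B receptor from Wistar rat liver was incubated with 0.25 nM [3H]prazosin for 60 min at 25 °C in 50 mM Tris-HCl, pH 7.4, 0.5 mM EDTA. Non-specific binding was defined with 10 μM phentolamine. Bound radioligand was measured by filtration and counting, reported as percent inhibition of specific binding.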

[3] = target: T3, human recombinant adrenergic α2A receptor (Homo sapiens, UniProt P08913); assay: Radioligand binding, adrenergic α2A ([3H]MK-912); settings: for Percentage inhibition of ligand binding, Adrenergic α2A / Percentage inhibition of ligand binding, Adrenergic α2A (0.1 μM): 0.1 µM
T3 construct: expressed in transfected cells; host or cells: insect Sf9 cells
T3 sequence (P08913 1-465): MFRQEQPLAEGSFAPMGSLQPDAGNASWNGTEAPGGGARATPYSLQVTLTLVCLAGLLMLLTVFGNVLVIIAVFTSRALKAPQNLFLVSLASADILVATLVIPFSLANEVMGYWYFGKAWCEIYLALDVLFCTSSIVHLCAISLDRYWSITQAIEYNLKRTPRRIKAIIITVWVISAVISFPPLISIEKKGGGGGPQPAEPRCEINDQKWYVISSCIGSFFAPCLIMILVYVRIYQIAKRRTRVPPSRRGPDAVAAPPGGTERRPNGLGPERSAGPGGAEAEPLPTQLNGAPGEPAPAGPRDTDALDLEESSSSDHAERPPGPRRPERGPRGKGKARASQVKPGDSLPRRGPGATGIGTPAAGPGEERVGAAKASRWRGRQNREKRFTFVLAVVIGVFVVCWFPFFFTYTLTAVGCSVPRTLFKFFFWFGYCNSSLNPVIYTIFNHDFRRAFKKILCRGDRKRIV
In short: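 Displacement of 1 nM [3H]MK-912 from receptor produced in insect Sf9 cells was measured after 60 min at 25 °C. Readout: percent inhibition of specific binding.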

[4] = compound at 0.03 μM, [3H]Rauwolscine, repeat assays, each datapoint shown
[5] = compound at 0.1 μM, [3H]Prazosin, repeat assays, each datapoint shown
[6] = compound at 0.1 μM, [3H]MK-912, repeat assays, each datapoint shown
[7] = compound at 0.03 μM, [3H]Rauwolscine, repeat datapoints each shown
[8] = compound at 0.1 μM, [3H]Prazosin, repeat datapoints each shown
[9] = compound at 0.1 μM, [3H]MK-912, repeat datapoints each shown
[10] = compound at 0.1 μM, [3H]Prazosin, repeat assays, each datapoint shown, read-out: Percentage inhibition of ligand binding, Adrenergic α1B
[11] = read-out: Percentage inhibition of ligand binding, Adrenergic α1B (0.1 μM), compound at 0.1 μM, [3H]Prazosin, repeat datapoints each shown
[12] = read-out: Percentage inhibition of ligand binding, Adrenergic α2A (0.1 μM), compound at 0.1 μM, [3H]MK-912, repeat datapoints each shown
[13] = compound at 0.03 μM, [3H]Rauwolscine, repeat assays, each datapoint shown, read-out: Percentage inhibition of ligand binding, Adrenergic α2B
[14] = compound at 0.1 μM, [3H]MK-912, repeat assays, each datapoint shown, read-out: Percentage inhibition of ligand binding, Adrenergic α2A

Percentage inhibition of ligand binding, Adrenergic α2B ([1]; 0.03 μM compound): 70%
Percentage inhibition of ligand binding, Adrenergic α1B ([2]; 0.1 μM compound): 63%
Percentage inhibition of ligand binding, Adrenergic α2A ([3]; 0.1 μM compound): 25%
Compound: Cc1ccc2c(c1)c1c(n2CC(N)c2ccc(F)cc2)CCN(C)C1 (stereo not shown) [II-11, 2-(2,8-dimethyl-3,4-dihydro-1H-pyrido[4,3-b]indol-5(2H)-yl)-1-(4-fluorophenyl)ethanamine]

Percentage inhibition of ligand binding, Adrenergic α2B [1, 4]: 1% and 7%
Percentage inhibition of ligand binding, Adrenergic α1B [2, 5]: 1%
Percentage inhibition of ligand binding, Adrenergic α2A [3, 6]: 19%
Compound: Cc1cnc2c(c1)c1c(n2CC(C)(O)c2cccnc2)CCN2CCCC12 (single isomer, unassigned) [26c]

Percentage inhibition of ligand binding, Adrenergic α2B (0.03 μM) [1, 7]: 18%
Percentage inhibition of ligand binding, Adrenergic α1B (0.1 μM) [2, 8]: 8%
Percentage inhibition of ligand binding, Adrenergic α2A (0.1 μM) [3, 9]: 6%
Compound: Cc1ccc2c(c1)c1c(n2CC(CC(O)C(C)(C)C)c2ccncc2)CCN(C)C1 (single isomer, unassigned) [II-227b, 6-(2,8-dimethyl-1,2,3,4-tetrahydro-pyrido[4,3-b]indol-5-yl)-2,2-dimethyl-5-pyridin-4-yl-hexan-3-ol]

Percentage inhibition of ligand binding, Adrenergic α2B [1, 4]: 34%
Percentage inhibition of ligand binding, Adrenergic α1B [2, 5]: 71%
Percentage inhibition of ligand binding, Adrenergic α2A [3, 6]: 18%
Compound: Cc1ccc2c(c1)c1c(n2CC(O)c2ccncc2)CC2CCCN2C1 (single isomer, unassigned) [76b]

Percentage inhibition of ligand binding, Adrenergic α2B [1, 4]: 75%
inhibition at 0.1 µM [2, 10]: 75%
Percentage inhibition of ligand binding, Adrenergic α2A [3, 6]: 21%
Compound: Cc1ccc2c(c1)c1c(n2CC(C)(O)c2ccncc2)CN(C)CC1 (single isomer, unassigned) [19a, 1-(2,6-dimethyl-1,2,3,4-tetrahydro-β-carbolin-9-yl)-2-pyridin-4-yl-propan-2-ol]

Percentage inhibition of ligand binding, Adrenergic α2B (0.03 μM) [1, 7]: 13%
Percentage inhibition of ligand binding, Adrenergic α1B (0.1 μM) [2, 8]: 10%
Percentage inhibition of ligand binding, Adrenergic α2A (0.1 μM) [3, 9]: 4%
Compound: CC1Cc2c(c3cc(Cl)ccc3n2CC(C)(O)c2cccnc2)CN1C (single isomer, unassigned) [II-147d, 1-(8-chloro-2,3-dimethyl-3,4-dihydro-1H-pyrido[4,3-b]indol-5(2H)-yl)-2-(pyridin-3-yl)propan-2-ol]

inhibition at 0.1 µM ([1]; read-out: Percentage inhibition of ligand binding, Adrenergic α2B (0.1 μM), compound at 0.1 μM, [3H]Rauwolscine, repeat datapoints each shown): 68%
inhibition at 0.1 µM [2, 11]: 59%
inhibition at 0.1 µM [3, 12]: 18%
Compound: Cc1ccc2c(c1)c1c(n2CCc2cncc(F)c2)CCN(C)C1 [compound 117, 5-[2-(5-fluoro-pyridin-3-yl)-ethyl]-2,8-dimethyl-2,3,4,5-tetrahydro-1H-pyrido[4,3-b]indole]

inhibition at 0.03 µM [1, 13]: 17%
inhibition at 0.1 µM [2, 10]: 12%
inhibition at 0.1 µM [3, 14]: -7%
Compound: Cc1ccc2c(c1)c1c(n2CC(O)c2ccc(C(=O)O)cc2)CCN(C)C1 (stereo not shown) [compound 67, 4-[2-(2,8-dimethyl-1,2,3,4-tetrahydro-pyrido[4,3-b]indol-5-yl)-1-hydroxy-ethyl]-benzoic acid]

Percentage inhibition of ligand binding, Adrenergic α2B [1, 4]: 100%
inhibition at 0.03 µM [1, 13]: 98%
Ki ([1]; read-out: Ki α2B): 1.09 nM
inhibition at 0.03 µM ([2]; compound at 0.03 μM, [3H]Prazosin, repeat assays, each datapoint shown, read-out: Percentage inhibition of ligand binding, Adrenergic α1B): 19%
Percentage inhibition of ligand binding, Adrenergic α1B [2, 5]: 38%
inhibition at 0.1 µM [2, 10]: 32%
Ki [3]: 77.2 nM
inhibition at 0.03 µM ([3]; compound at 0.03 μM, [3H]MK-912, repeat assays, each datapoint shown, read-out: Percentage inhibition of ligand binding, Adrenergic α2A): 16%
Percentage inhibition of ligand binding, Adrenergic α2A [3, 6]: 39%
inhibition at 0.1 µM [3, 14]: 35%
Compound: Cc1ccc2c(c1)c1c(n2CC(C)(O)c2ccc(C)nc2)CCN(C)C1 (single isomer, unassigned) [29a]

Percentage inhibition of ligand binding, Adrenergic α2B (0.03 μM) [1, 7]: 16%
Percentage inhibition of ligand binding, Adrenergic α1B (0.1 μM) [2, 8]: 13%
Percentage inhibition of ligand binding, Adrenergic α2A (0.1 μM) [3, 9]: 3%
Compound: Cc1ccc2c(c1)c1c(n2CC(C)(O)c2cccnc2)CC(C)N(C)C1 (single isomer, unassigned) [II-146d, 2-(pyridin-3-yl)-1-(2,3,8-trimethyl-3,4-dihydro-1H-pyrido[4,3-b]indol-5(2H)-yl)propan-2-ol]

inhibition at 0.03 µM ([1]; read-out: Percentage inhibition of ligand binding, Adrenergic α2B (0.03 μM), compound at 0.03 μM, [3H]Rauwolscine, repeat datapoints each shown): 98%
inhibition at 0.1 µM [2, 11]: 93%
Ki [3]: 2.72 nM
Percentage inhibition of ligand binding, Adrenergic α2A (0.1 μM) [3, 9]: 97%
inhibition at 0.03 µM ([3]; read-out: Percentage inhibition of ligand binding, Adrenergic α2A (0.03 μM), compound at 0.03 μM, [3H]MK-912, repeat datapoints each shown): 84%
inhibition at 0.1 µM [3, 12]: 93%
Compound: Cc1ccc(C(O)Cn2c3c(c4cc(C)ccc42)CN(C)CC3)cc1 (single isomer, unassigned) [183b, 2-(1,2,3,4-tetrahydro-2,8-dimethylpyrido[4,3-b]indol-5-yl)-1-p-tolylethanol]

Percentage inhibition of ligand binding, Adrenergic α2B [1, 4]: 63%
inhibition at 0.1 µM [2, 10]: 8%
inhibition at 0.1 µM [3, 14]: 8%
Compound: Cc1ccc2c(c1)c1c(n2CC(C)(O)c2cccnc2)CCNC1 (single isomer, unassigned) [24a]

Percentage inhibition of ligand binding, Adrenergic α2B ([1]; 0.03 μM compound): 12%
Percentage inhibition of ligand binding, Adrenergic α1B ([2]; 0.1 μM compound): −1%
Percentage inhibition of ligand binding, Adrenergic α2A ([3]; 0.1 μM compound): −1%
Compound: Cc1ccc2c(c1)c1c(n2C(C)C(O)c2ccccc2)CCN(C)C1 (single isomer, unassigned) [II-95b, 2-(2,8-dimethyl-1,2,3,4-tetrahydro-pyrido[4,3-b]indol-5-yl)1-phenyl-propan-1-ol]

Percentage inhibition of ligand binding, Adrenergic α2B (0.03 μM) [1, 7]: 15%
Percentage inhibition of ligand binding, Adrenergic α1B (0.1 μM) [2, 8]: 11%
Percentage inhibition of ligand binding, Adrenergic α2A (0.1 μM) [3, 9]: 6%
Compound: CN1CCc2c(c3cc(C(F)(F)F)ccc3n2CC(C)(O)c2cccnc2)C1 (single isomer, unassigned) [174b]

Percentage inhibition of ligand binding, Adrenergic α2B (0.03 μM) [1, 7]: 31%
Percentage inhibition of ligand binding, Adrenergic α1B (0.1 μM) [2, 8]: 10%
Percentage inhibition of ligand binding, Adrenergic α2A (0.1 μM) [3, 9]: 3%
Compound: Cc1ccc2c(c1)c1c(n2CC(C)(O)c2cccnc2)C(c2ccccc2)N(C)CC1 (stereo not drawn) [II-112b, 1-(2,6-dimethyl-1-phenyl-1,2,3,4-tetrahydro-β-carbolin-9-yl)-2-pyridin-3-yl-propan-2-ol]

Percentage inhibition of ligand binding, Adrenergic α2B (0.03 μM) [1, 7]: 103%
Percentage inhibition of ligand binding, Adrenergic α1B (0.1 μM) [2, 8]: 84%
Percentage inhibition of ligand binding, Adrenergic α2A (0.1 μM) [3, 9]: 44%
Compound: Cc1ccc2c(c1)c1c(n2CC(O)c2ccc(C)nc2)CCN2CCCC12 (single isomer, unassigned) [198b, 2-(9-methyl-1,2,3,4,5,10c-hexahydro-3a,6-diaza-cyclopenta[c]fluoren-6-yl)-1-(6-methyl-pyridin-3-yl)-ethanol]
